Data reported in patent US9187449B2, “Compounds with increased specificity for the treatment of glioma” (University of Tennessee Research Foundation, priority 2013, dated 2015).
Where a name gives a salt, the structure may show the parent alone. Read-outs that look alike come from different tables or passages of the source.

Legend:
Type in all cases: cell-based
T98G = test: MTT cell viability assay, T98G glioma cells; settings: human glioma cell line T98G, five days exposure, mean of triplicate experiments, read-out: Mean IC50 ± SD, T98G
Description: (§1) The synthesized THI analogs were screened for their efficacy against established human glioma cell lines using the MTT colorimetric assay. This assay measures cell viability by quantitating purple formazan crystal formation caused by the reduction of tetrazolium salts in metabolically active cells. The inventors performed a series of experiments to determine the best concentration range for each compound to generate a half-maximal inhibitory concentration (IC50). The IC50 value for each compound represents the mean of triplicate experiments. Primary astrocytes established from the cortices of normal mouse pups were used as the model system to represent the degree of toxicity that would be expected in normal astrocytes in the human brain. The glioma cells and normal astrocytes were exposed to escalating concentrations of each THI compound for five days and then subjected to the MTT assay. Cell viability data at each concentration was used to calculate IC50 values.

U87 = test: MTT cell viability assay, U87 glioma cells; settings: human glioma cell line U87, five days exposure, mean of triplicate experiments, read-out: Mean IC50 ± SD, U87
Description: as §1

LN18 = test: MTT cell viability assay, LN18 glioma cells; settings: human glioma cell line LN18, five days exposure, mean of triplicate experiments, read-out: Mean IC50 ± SD, LN18
Description: as §1

A172 = test: MTT cell viability assay, A172 glioma cells; settings: human glioma cell line A172, five days exposure, mean of triplicate experiments, read-out: Mean IC50 ± SD, A172
Description: as §1

Normal astrocytes = test: MTT cell viability assay, normal primary astrocytes (toxicity model); settings: primary astrocyte cultures from normal mouse brains, five days exposure, mean of triplicate experiments, read-out: Mean IC50 ± SD, Normal astrocytes
Description: as §1

SMILES	IC50 (T98G; 120 h)	IC50 (U87; U-87 MG, 120 h)	IC50 (LN18; LN-18, 120 h)	IC50 (A172; A 172, 120 h)	IC50 (T98G)	IC50 (U87)	IC50 (LN18)	IC50 (A172)	IC50 (Normal astrocytes; 120 h)	IC50 (Normal astrocytes)
COc1ccncc1-c1ccc(CC2NCCc3c(OC)ccc(OC)c32)cc1 (stereo not shown) [EDL-358 (11), 5,8-dimethoxy-1-(4-(4-methoxypyridin-3-yl)benzyl)-1,2,3,4-tetrahydroisoquinoline dihydrochloride]	13.8 µM	16.2 µM	13.7 µM	8.25 µM	–	–	–	–	24.6 ± 0.79 µM	–
COc1ccncc1-c1ccc(CCCC2NCCc3c(OC)ccc(OC)c32)cc1 (stereo not shown) [EDL-361 (13), 5,8-dimethoxy-1-(3-(4-(4-methoxypyridin-3-yl)phenyl)propyl)-1,2,3,4-tetrahydroisoquinoline dihydrochloride]	14.8 ± 0.68 µM	10.5 µM	11.7 ± 0.17 µM	15.2 ± 0.98 µM	–	–	–	–	11.9 ± 0.56 µM	–

Further lines, with some results ahead:

IC50 (T98G; 120 h)	IC50 (U87; U-87 MG, 120 h)	IC50 (LN18; LN-18, 120 h)	IC50 (A172; A 172, 120 h)	IC50 (T98G)	IC50 (U87)	IC50 (LN18)	IC50 (A172)	SMILES	IC50 (Normal astrocytes; 120 h)	IC50 (Normal astrocytes)
–	–	–	–	59.5 ± 7.61 µM	66.5 ± 1.12 µM	37 µM	41.2 µM	COc1cc2c(cc1OC)C(Cc1ccc(-c3cnccc3OC)cc1)NCC2 (stereo not shown) [EDL-291 (9)]	–	51.1 ± 1.38 µM
–	–	–	–	571 ± 50.4 µM	49.1 ± 5.15 µM	392 ± 77.2 µM	65.3 ± 12 µM	Cn1nnc2c(C(N)=O)ncn2c1=O [TMZ, reference compound]	–	> 1000 µM
10.4 µM	8.4 µM	5.42 µM	5.6 µM	–	–	–	–	COc1ccncc1-c1ccc(CCC2NCCc3c(OC)ccc(OC)c32)cc1 (stereo not shown) [EDL-360 (12), 5,8-dimethoxy-1-(4-(4-methoxypyridin-3-yl)phenethyl)-1,2,3,4-tetrahydroisoquinoline dihydrochloride]	19.7 ± 2.44 µM	–
